Data: BindingDB's records for doi:10.1021/acs.jmedchem.9b00568 (University of Central Florida, 2020)

Test: Induction of LAT1-mediated polyamine efflux in human L3.6PL cells assessed as reduction in cell viability after 48 hrs by MTS assay

For `CC(C)CCN1CCN([C@@H](CNCc2ccccc2)CC2CCCCC2)C[C@@H]1CC(C)C`, the IC50 was 3.48 µM.
